Measurements as given in ChEMBL document CHEMBL3228022, “Synthesis of 2,3,4,4a,5,9b-hexahydro-1H-pyrido[4,3-b]indole derivatives and their central nervous system activities” (1979).
Activity calls are given as the source filed them. The calls are words filed in the database; no cut-off is given here.

Columns and labels:
Rattus norvegicus [1] = assay: Neuroleptic activity in Wistar HLA rat assessed as inhibition of methamphetamine-induced stereotyped behavior at 10 mg/kg, ip administered 20 mins before methamphetamine challenge measured every 30 mins for 3 hrs followed by every 1 hr for further 3 hrs; type: functional; design: Activity: scale not given: the % may be the effect or the level left; conditions: route intraperitoneal; for inhibition in vivo at 10 mg/kg: Rattus norvegicus, Wistar HLA, ip
Rattus norvegicus [2] = assay: Neuroleptic activity in Wistar HLA rat assessed as inhibition of methamphetamine-induced stereotyped behavior at 2 mg/kg, ip administered 20 mins before methamphetamine challenge measured every 30 mins for 3 hrs followed by every 1 hr for further 3 hrs; type: functional; design: Activity: scale not given: the % may be the effect or the level left; conditions: route intraperitoneal
Rattus norvegicus [3] = assay: Neuroleptic activity in Wistar HLA rat assessed as inhibition of methamphetamine-induced stereotyped behavior at 5 mg/kg, ip administered 20 mins before methamphetamine challenge measured every 30 mins for 3 hrs followed by every 1 hr for further 3 hrs; type: functional; design: Activity: scale not given: the % may be the effect or the level left; conditions: route intraperitoneal
Rattus norvegicus [4] = assay: Neuroleptic activity in Wistar HLA rat assessed as inhibition of methamphetamine-induced stereotyped behavior at 1 mg/kg, ip administered 20 mins before methamphetamine challenge measured every 30 mins for 3 hrs followed by every 1 hr for further 3 hrs; type: functional; design: Activity: scale not given: the % may be the effect or the level left; conditions: route intraperitoneal
Mus musculus [5] = assay: Neuroleptic activity in STD-ddy mouse assessed as inhibition of locomotion at 100 mg/kg, po measured for 3 mins; type: functional; conditions: 0.05 h
Mus musculus [6] = assay: Neuroleptic activity in STD-ddy mouse assessed as catalepsy at 100 mg/kg, po measured up to 30 secs; type: functional, organism-based; design: dose 100 mg/kg
Mus musculus [7] = assay: Neuroleptic activity in STD-ddy mouse assessed as muscle relaxation at 100 mg/kg, po after 20 mins; type: functional, organism-based; design: dose 100 mg/kg
Mus musculus [8] = assay: Neuroleptic activity in STD-ddy mouse assessed as inhibition of locomotion at 10 mg/kg, po measured for 3 mins; type: functional; conditions: 0.05 h
Mus musculus [9] = assay: Neuroleptic activity in po dosed STD-ddy mouse assessed as inhibition of methamphetamine-induced stereotyped behavior administered 100 mins before methamphetamine challenge measured for 20 mins; type: functional
Rattus norvegicus [10] = assay: Neuroleptic activity in Wistar HLA rat assessed as stimulation of methamphetamine-induced stereotyped behavior at 10 mg/kg, ip administered 20 mins before methamphetamine challenge measured every 30 mins for 3 hrs followed by every 1 hr for further 3 hrs; type: functional; conditions: route intraperitoneal
Rattus norvegicus [11] = assay: Neuroleptic activity in Wistar HLA rat assessed as stimulation of methamphetamine-induced stereotyped behavior at 2 mg/kg, ip administered 20 mins before methamphetamine challenge measured every 30 mins for 3 hrs followed by every 1 hr for further 3 hrs; type: functional; conditions: route intraperitoneal
Mus musculus [12] = assay: Neuroleptic activity in po dosed STD-ddy mouse assessed as inhibition of active avoidance; type: functional
Mus musculus [13] = assay: Neuroleptic activity in po dosed STD-ddy mouse assessed as catalepsy measured up to 30 secs; type: functional
Mus musculus [14] = assay: Neuroleptic activity in po dosed STD-ddy mouse assessed as inhibition of locomotion measured for 3 mins; type: functional; conditions: 0.05 h
Rattus norvegicus [15] = assay: Neuroleptic activity in sc dosed Wistar HLA rat assessed as inhibition of apomorphine-induced gnawing administered 1 hr before apomorphine challenge measured 5 to 20 mins; type: functional
Rattus norvegicus [16] = assay: Neuroleptic activity in Wistar HLA rat assessed as stimulation of methamphetamine-induced stereotyped behavior at 5 mg/kg, ip administered 20 mins before methamphetamine challenge measured every 30 mins for 3 hrs followed by every 1 hr for further 3 hrs; type: functional; conditions: route intraperitoneal

| SMILES | Activity (Rattus norvegicus [2]) [%] | Activity (Rattus norvegicus [4]) [%] | inhibition in vivo at 100 mg/kg (Mus musculus [5]) [%] | Activity (Mus musculus [6]) | Activity (Mus musculus [7]) | inhibition in vivo at 10 mg/kg (Mus musculus [8]) [%] | further results |
| --- | --- | --- | --- | --- | --- | --- | --- |
| Cc1ccc2[nH]c3c(c2c1)CN(CCCC(=O)c1ccc(F)cc1)CC3.Cl | 0 | 0 |  |  |  |  | Activity (Rattus norvegicus [1]): 0%; Activity (Rattus norvegicus [3]): 0% |
| CCN1CC[C@H]2Nc3ccc(C)cc3[C@H]2C1 (mixture of isomers) |  |  | 54.7 | inactive |  |  |  |
| Cc1ccc2c(c1)[C@H]1CN(CCO)CC[C@H]1N2 (relative stereo) |  |  | 30.7 | inactive | inactive |  |  |
| CC(=O)CCN1CC[C@H]2Nc3ccc(C)cc3[C@H]2C1 (relative stereo) |  |  | 38.8 | inactive | inactive |  |  |
| Cc1ccc2c(c1)[C@H]1CN(CCCN(C)C)CC[C@H]1N2 (relative stereo) |  |  | 12.3 | inactive | inactive |  |  |
| Cc1ccc2c(c1)[C@H]1CN(Cc3ccccc3)CC[C@H]1N2 (relative stereo) |  |  | 35.3 | inactive | inactive |  |  |
| Cc1ccc2c(c1)[C@H]1CN(CC(=O)c3ccccc3)CC[C@H]1N2 (relative stereo) |  |  | 29.8 | inactive | inactive |  |  |
| Cc1ccc2c(c1)[C@H]1CN(CCCN3c4ccccc4Sc4cc(Cl)ccc43)CC[C@H]1N2.Cl (relative stereo) | 0 | 0 | 96.9 |  | inactive | 56.6 | Activity (Rattus norvegicus [1]): 0%; Activity (Rattus norvegicus [3]): 0% |
| Cc1ccc2c(c1)[C@H]1CN(CCCC(c3ccc(F)cc3)c3ccc(F)cc3)CC[C@H]1N2 (relative stereo) |  |  | 90.7 |  | inactive | -73 |  |
| Cl.O=C(CCCN1CC[C@H]2Nc3ccccc3[C@H]2C1)c1ccc(F)cc1 (relative stereo) | 0 | 0 | 77.7 |  |  | -6 | inhibition in vivo at 10 mg/kg (Rattus norvegicus [1]): 25%; Activity (Rattus norvegicus [3]): 0% |
| Cl.O=C(CCCN1CC[C@H]2Nc3ccc(F)cc3[C@H]2C1)c1ccc(F)cc1 (relative stereo) | 0 | 0 | 91.2 |  |  | 47.2 | inhibition in vivo at 10 mg/kg (Rattus norvegicus [1]): 50%; inhibition in vivo at 5 mg/kg (Rattus norvegicus [3]; Rattus norvegicus, Wistar HLA, ip): 25% |
| Cc1ccc2c(c1)[C@H]1CN(CCCC(=O)c3ccc(F)cc3)CC[C@H]1N2.Cl (relative stereo) |  | 0 | 97.8 | Active | Active | 75.9 | ED50 (Mus musculus [9]): 23.8 mg/kg; Activity (Rattus norvegicus [10]): 50%; Activity (Rattus norvegicus [11]): 50%; ED50 (Mus musculus [12]): 10 mg/kg; ED50 (Mus musculus [13]): 15.3 mg/kg; ED50 (Mus musculus [14]): 9.3 mg/kg; ED50 (Rattus norvegicus [15]): 16.5 mg/kg; Activity (Rattus norvegicus [16]): >75% |
| CCc1ccc2c(c1)[C@H]1CN(CCCC(=O)c3ccc(F)cc3)CC[C@H]1N2.Cl (relative stereo) |  |  | 44 | inactive | inactive |  | Activity (Rattus norvegicus [10]): >75%; Activity (Rattus norvegicus [11]): 25%; Activity (Rattus norvegicus [16]): >75% |
| COc1ccc2c(c1)[C@H]1CN(CCCC(=O)c3ccc(F)cc3)CC[C@H]1N2.Cl (relative stereo) | 0 | 0 | 96.7 |  | Active | 61.7 | inhibition in vivo at 10 mg/kg (Rattus norvegicus [1]): 25%; Activity (Rattus norvegicus [3]): 0% |
